Laboratory results from PubChem BioAssay (NCI).
Where “and” joins values, the source holds several entries; their conditions need not be identical. Equal entries are not always repeated.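 How tested: cells in 96-well plates exposed to compound for 48 hours at five concentrations. At the GI50, growth is halved. TGI is the concentration that stops growth completely.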

Columns and labels:
Experiment in all cases: inhibition of tumour cell growth, NCI panel, 48 h
[1] = test system: SNB-19 CNS
[2] = test system: MDA-MB-435
[3] = test system: SF-268 CNS
[4] = test system: LOX IMVI melanoma
[5] = test system: MCF7 breast
[6] = test system: CCRF-CEM leukemia
[7] = test system: M14 melanoma
[8] = test system: HCT-15 colon
[9] = test system: NCI-H522 lung
[10] = test system: HOP-92 NSCLC

SMILES	TGI [1]	GI50 [2]	TGI [2]	TGI [3]	TGI [4]	GI50 [5]	TGI [5]	TGI [6]	TGI [7]	TGI [8]	TGI [9]	GI50 [10]	TGI [10]	GI50 [1]	GI50 [3]	GI50 [4]	GI50 [6]	GI50 [7]	GI50 [8]	GI50 [9]
C=COCCCOc1ccccc1	> 100 µM	> 100 µM	> 100 µM	> 100 µM	> 100 µM	> 100 µM	> 100 µM	> 100 µM	> 100 µM	> 100 µM	> 100 µM	> 100 µM	> 100 µM							
CNC(=O)N(C)N=NCCCl	> 100 µM		> 100 µM	> 100 µM	> 100 µM		> 100 µM	> 100 µM	> 100 µM	> 100 µM	> 100 µM		> 100 µM							
CCOC(=O)CCCn1c(SC)nc2[nH]cc(-c3ccccc3)c2c1=O	> 100 µM	19.4 µM	42.4 µM	87.8 µM	25.8 µM	18.4 µM	76.6 µM	54.5 µM	31.6 µM	> 100 µM	37.8 µM	7.62 µM	41.1 µM	21 µM	20.8 µM	11.3 µM	3.01 µM	15.4 µM	27.1 µM	15 µM
COc1ccc2c(c1)CCCC(Br)C2=O (stereo not drawn)	22.3 µM		5.99 µM	12.5 µM	3.04 µM		15.1 µM	1.48 µM	16.5 µM	12.7 µM	0.837 µM		23.3 µM							
C=C(c1nc2ccc(Cl)cc2[nH]c1=O)C(O)c1ccc(C(O)C(=O)c2nc3ccc(Cl)cc3[nH]c2=O)cc1 (stereo not drawn)	> 100 µM		> 100 µM	> 100 µM	> 100 µM		> 100 µM	> 100 µM	> 100 µM	> 100 µM	> 100 µM		> 100 µM							
CCN(CC)CCC(CNc1ccnc2cc(Cl)ccc12)c1ccc(OC)cc1 (stereo not drawn)	29 µM and 29.9 µM	1.91 µM and 1.65 µM	4.12 µM and 3.71 µM	18.4 µM and 21.4 µM	4.79 µM and 4.15 µM	4.98 µM and 4.5 µM	21.1 µM and 17.9 µM	55.9 µM and 28.7 µM	3.61 µM and 3.73 µM	12.3 µM and 16.5 µM	13.1 µM and 8.47 µM	2.42 µM and 2.12 µM	14.3 µM and 11.5 µM	10.3 µM and 11 µM	4.19 µM and 5.23 µM	1.88 µM and 1.6 µM	13.1 µM and 2.77 µM	1.86 µM and 1.88 µM	3.06 µM and 3.51 µM	3.29 µM and 2.16 µM
O=C(CNc1ccc(Cl)cc1)Nc1ccc(-c2nc3ccccc3s2)cc1	16.6 µM	3.91 µM	16.6 µM	10.8 µM	2.95 µM	0.0697 µM	6.5 µM	> 100 µM	5.15 µM	5.32 µM	3.67 µM	1.91 µM	5.17 µM	6.03 µM	3.38 µM	1.44 µM	0.859 µM	2.1 µM	1.84 µM	1.53 µM
COc1cc(N(CCC#N)CCC#N)ccc1/C(N=Nc1ccc([N+](=O)[O-])cc1)=N/NC(=O)c1cc(Br)ccc1O	> 150 µg/mL	52.2 µg/mL	> 150 µg/mL	78.7 µg/mL	110 µg/mL	42.3 µg/mL	> 150 µg/mL	> 150 µg/mL	148 µg/mL	68.2 µg/mL	> 150 µg/mL	79.6 µg/mL	> 150 µg/mL	58.5 µg/mL	19.3 µg/mL	29 µg/mL	48.5 µg/mL	44.5 µg/mL	25.6 µg/mL	53.4 µg/mL
CCCCCCNC(=O)c1cc(NCc2cc(O)ccc2O)ccc1O	28.6 µM	9.48 µM	22.1 µM	18.1 µM	22.4 µM	5.01 µM	27.7 µM	46.5 µM	25.2 µM	7.35 µM	0.752 µM	1.66 µM	5.03 µM	14.9 µM	3.79 µM	6.84 µM	0.409 µM	11.1 µM	2.16 µM	0.265 µM
